Test results from ChEMBL document CHEMBL2074433, “Specificity of doxorubicin versus rhodamine-123 in assessing P-glycoprotein functionality in the LLC-PK1, LLC-PK1:MDR1 and Caco-2 cell lines” (Eur J Pharm Sci, 2000).

Target: ATP-dependent translocase ABCB1 (Homo sapiens, UniProt P08183)
Test: TP_TRANSPORTER: inhibition of Doxorubicin transepithelial transport (basal to apical) (Doxorubicin: 3 uM, Quinidine: 50 uM) in MDR1-expressing LLC-PK1 cells
Type: functional, cell-based
Conditions: pig, llc-pk1, 50 µM

Sequence of ATP-dependent translocase ABCB1 (P08183 whole entry): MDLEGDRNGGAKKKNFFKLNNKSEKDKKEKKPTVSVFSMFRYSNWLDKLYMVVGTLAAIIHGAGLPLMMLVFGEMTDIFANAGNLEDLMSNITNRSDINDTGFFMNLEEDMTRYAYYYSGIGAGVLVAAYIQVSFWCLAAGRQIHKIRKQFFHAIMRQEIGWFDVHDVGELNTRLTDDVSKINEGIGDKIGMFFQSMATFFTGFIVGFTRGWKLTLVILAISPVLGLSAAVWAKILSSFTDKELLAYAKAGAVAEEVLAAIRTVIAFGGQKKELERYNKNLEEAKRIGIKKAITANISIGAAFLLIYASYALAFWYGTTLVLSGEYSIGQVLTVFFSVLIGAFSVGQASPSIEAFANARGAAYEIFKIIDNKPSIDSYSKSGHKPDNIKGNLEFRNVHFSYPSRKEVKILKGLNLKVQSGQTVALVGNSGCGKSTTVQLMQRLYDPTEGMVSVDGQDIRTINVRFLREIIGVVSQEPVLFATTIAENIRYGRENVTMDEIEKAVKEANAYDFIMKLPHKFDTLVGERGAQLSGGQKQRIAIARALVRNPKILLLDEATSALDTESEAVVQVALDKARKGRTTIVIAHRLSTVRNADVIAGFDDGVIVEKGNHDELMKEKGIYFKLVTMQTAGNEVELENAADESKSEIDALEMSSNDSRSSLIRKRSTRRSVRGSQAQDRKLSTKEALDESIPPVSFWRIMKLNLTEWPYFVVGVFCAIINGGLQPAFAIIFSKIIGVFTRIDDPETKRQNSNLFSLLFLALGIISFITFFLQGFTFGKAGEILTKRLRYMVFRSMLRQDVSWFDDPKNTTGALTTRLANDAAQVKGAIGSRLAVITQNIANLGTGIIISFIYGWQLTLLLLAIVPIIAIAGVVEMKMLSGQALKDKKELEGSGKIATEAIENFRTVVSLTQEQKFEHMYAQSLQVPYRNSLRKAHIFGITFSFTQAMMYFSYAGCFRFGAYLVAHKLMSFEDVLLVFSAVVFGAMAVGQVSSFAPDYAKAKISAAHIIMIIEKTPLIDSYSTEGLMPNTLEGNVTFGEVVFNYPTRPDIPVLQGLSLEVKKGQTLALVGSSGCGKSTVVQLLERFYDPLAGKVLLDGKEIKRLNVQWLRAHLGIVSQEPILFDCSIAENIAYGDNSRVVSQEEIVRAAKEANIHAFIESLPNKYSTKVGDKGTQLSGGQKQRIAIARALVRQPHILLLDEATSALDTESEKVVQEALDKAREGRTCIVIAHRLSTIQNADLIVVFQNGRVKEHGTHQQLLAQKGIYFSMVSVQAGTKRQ

Activity: is not an inhibitor [-]
Structure (SMILES): C=C[C@H]1C[N@@]2CC[C@H]1C[C@H]2[C@H](O)c1ccnc2ccc(OC)cc12 [QUININE]
